In one assay the test system is Trichophyton benhamiae. Briefly: Antifungal activity against Trichophyton mentagrophytes. Format: functional, Arthroderma benhamiae.
Another assay concerns Candida albicans. Briefly: Antifungal activity against Candida albicans. Format: functional.
In another assay the test system is Aspergillus fumigatus. Briefly: Antifungal activity against Aspergillus fumigatus. Format: functional.
Another assay concerns Trichophyton rubrum. Briefly: Antifungal activity against Trichophyton rubrum. Format: functional.
The test system of the next assay is Cryptococcus neoformans. Briefly: Antifungal activity against Cryptococcus neoformans. Format: functional.

Broadly, the MIC is the least concentration at which growth counts as inhibited. A high value points to weaker potency.

Converted amounts (≈) assume the structure as drawn.

Turning to `N#Cc1ccc2c(c1)COB2O`, the MIC in the assay on Trichophyton benhamiae was found to be 16 µg/mL (≈ 101 µM); against Candida albicans, 8 µg/mL (≈ 50.3 µM); against Aspergillus fumigatus, 16 µg/mL (≈ 101 µM); against Trichophyton rubrum, 16 µg/mL (≈ 101 µM); against Cryptococcus neoformans it was 8 µg/mL (≈ 50.3 µM).
For the compound `CC1OB(O)c2ccc(F)cc21` (stereo not given), the MIC against Trichophyton benhamiae was found to be 16 µg/mL (≈ 96.4 µM); against Candida albicans, 16 µg/mL (≈ 96.4 µM); against Aspergillus fumigatus, 16 µg/mL (≈ 96.4 µM); in the assay on Trichophyton rubrum, 32 µg/mL (≈ 193 µM); in the assay with Cryptococcus neoformans it was 32 µg/mL (≈ 193 µM).
Take `Fc1ccc2c(c1)COB2c1cccnc1`: the MIC in the assay with Trichophyton benhamiae came out at 32 µg/mL (≈ 150 µM); against Candida albicans it was 4 µg/mL (≈ 18.8 µM); against Aspergillus fumigatus it was 16 µg/mL (≈ 75.1 µM); with Trichophyton rubrum it was 16 µg/mL (≈ 75.1 µM); against Cryptococcus neoformans it was 16 µg/mL (≈ 75.1 µM).
Regarding `OB1OCc2ccc3ccccc3c21`, the minimal inhibitory concentration (MIC) against Trichophyton benhamiae worked out at 2 µg/mL (≈ 10.9 µM); against Candida albicans, 32 µg/mL (≈ 174 µM); with Aspergillus fumigatus it was 32 µg/mL (≈ 174 µM); with Trichophyton rubrum it was 4 µg/mL (≈ 21.7 µM); against Cryptococcus neoformans, 32 µg/mL (≈ 174 µM).
Regarding `Fc1ccc(B2OCc3ccccc32)cc1`, the minimal inhibitory concentration (MIC) came out at 4 µg/mL (≈ 18.9 µM) in the assay with Trichophyton benhamiae; 4 µg/mL (≈ 18.9 µM) in the assay with Candida albicans; 2 µg/mL (≈ 9.43 µM) with Aspergillus fumigatus; 8 µg/mL (≈ 37.7 µM) with Trichophyton rubrum; 2 µg/mL (≈ 9.43 µM) against Cryptococcus neoformans.
Turning to `c1ccc(B2OCCc3ccccc32)cc1`, the MIC in the assay with Trichophyton benhamiae is 8 µg/mL (≈ 38.4 µM); against Candida albicans, 8 µg/mL (≈ 38.4 µM); in the assay with Aspergillus fumigatus, 16 µg/mL (≈ 76.9 µM); in the assay on Trichophyton rubrum it was 8 µg/mL (≈ 38.4 µM); in the assay on Cryptococcus neoformans, 16 µg/mL (≈ 76.9 µM).
Turning to `Clc1cccc(B2OCc3ccccc32)c1`, the minimal inhibitory concentration (MIC) against Trichophyton benhamiae stood at 8 µg/mL (≈ 35 µM); against Candida albicans it was 8 µg/mL (≈ 35 µM); in the assay on Aspergillus fumigatus it was 8 µg/mL (≈ 35 µM); in the assay on Trichophyton rubrum, 16 µg/mL (≈ 70 µM); in the assay with Cryptococcus neoformans, 4 µg/mL (≈ 17.5 µM).
With `OB1OCc2cccc(F)c21`, the minimum inhibitory concentration (MIC) against Trichophyton benhamiae is 16 µg/mL (≈ 105 µM); against Candida albicans, 32 µg/mL (≈ 211 µM); against Aspergillus fumigatus, 4 µg/mL (≈ 26.3 µM); in the assay on Trichophyton rubrum, 16 µg/mL (≈ 105 µM); with Cryptococcus neoformans, 32 µg/mL (≈ 211 µM).
As for `OB1OCc2cc(F)c(F)cc21`, the minimum inhibitory concentration (MIC) in the assay with Trichophyton benhamiae came to 4 µg/mL (≈ 23.5 µM); with Candida albicans, 4 µg/mL (≈ 23.5 µM); against Aspergillus fumigatus, 2 µg/mL (≈ 11.8 µM); with Trichophyton rubrum, 4 µg/mL (≈ 23.5 µM); against Cryptococcus neoformans, 2 µg/mL (≈ 11.8 µM).
Turning to `Fc1ccc2c(c1)COB2c1ccoc1`, the MIC against Trichophyton benhamiae, in the assay on Candida albicans, with Aspergillus fumigatus, against Trichophyton rubrum and against Cryptococcus neoformans was 4 µg/mL (≈ 19.8 µM) each time.
In the case of `OB1OCc2cc(F)ccc21` [TAVABOROLE], the MIC turned out to be 1 µg/mL (≈ 6.58 µM) against Trichophyton benhamiae; 0.5 µg/mL (≈ 3.29 µM) in the assay with Candida albicans; 0.25 µg/mL (≈ 1.65 µM) against Aspergillus fumigatus; 1 µg/mL (≈ 6.58 µM) against Trichophyton rubrum; 0.25 µg/mL (≈ 1.65 µM) in the assay with Cryptococcus neoformans.
For `OCc1ccc2c(c1)COB2O`, the minimum inhibitory concentration (MIC) with Trichophyton benhamiae is 64 µg/mL (≈ 390 µM); against Candida albicans, greater than 64 µg/mL; against Aspergillus fumigatus, greater than 64 µg/mL; against Trichophyton rubrum, 64 µg/mL (≈ 390 µM); in the assay on Cryptococcus neoformans, greater than 64 µg/mL.
Regarding `Fc1cccc(B2OCc3ccccc32)c1`, the MIC in the assay with Trichophyton benhamiae was 16 µg/mL (≈ 75.5 µM); against Candida albicans, 4 µg/mL (≈ 18.9 µM); with Aspergillus fumigatus it was 8 µg/mL (≈ 37.7 µM); against Trichophyton rubrum, 8 µg/mL (≈ 37.7 µM); against Cryptococcus neoformans, 4 µg/mL (≈ 18.9 µM).
`Cc1cscc1B1OCc2cc(F)ccc21`: the minimal inhibitory concentration (MIC) turned out to be 2 µg/mL (≈ 8.62 µM) in the assay with Trichophyton benhamiae; 1 µg/mL (≈ 4.31 µM) with Candida albicans; 1 µg/mL (≈ 4.31 µM) against Aspergillus fumigatus; 1 µg/mL (≈ 4.31 µM) against Trichophyton rubrum; 1 µg/mL (≈ 4.31 µM) with Cryptococcus neoformans.
In the case of `C(=C\c1ccccc1)/B1OCc2ccccc21`, the MIC came out at 8 µg/mL (≈ 36.4 µM) against Trichophyton benhamiae; 2 µg/mL (≈ 9.09 µM) against Candida albicans; 4 µg/mL (≈ 18.2 µM) against Aspergillus fumigatus; 8 µg/mL (≈ 36.4 µM) in the assay on Trichophyton rubrum; 4 µg/mL (≈ 18.2 µM) in the assay on Cryptococcus neoformans.
In the case of `Fc1ccc2c(c1)COB2c1ccccc1`, the minimum inhibitory concentration (MIC) against Trichophyton benhamiae amounted to 2 µg/mL (≈ 9.43 µM); against Candida albicans, 0.5 µg/mL (≈ 2.36 µM); against Aspergillus fumigatus, 2 µg/mL (≈ 9.43 µM); against Trichophyton rubrum it was 1 µg/mL (≈ 4.72 µM); with Cryptococcus neoformans it was 2 µg/mL (≈ 9.43 µM).
As for `OB1OCc2cc(Cl)ccc21` [AN-2718], the MIC in the assay on Trichophyton benhamiae was determined as 2 µg/mL (≈ 11.9 µM); in the assay on Candida albicans it was 1 µg/mL (≈ 5.94 µM); with Aspergillus fumigatus, 1 µg/mL (≈ 5.94 µM); against Trichophyton rubrum, 1 µg/mL (≈ 5.94 µM); against Cryptococcus neoformans, 2 µg/mL (≈ 11.9 µM).
As to `c1ccc(B2OCc3ccccc32)cc1`, the MIC with Trichophyton benhamiae was 4 µg/mL (≈ 20.6 µM); in the assay with Candida albicans, 4 µg/mL (≈ 20.6 µM); with Aspergillus fumigatus, 4 µg/mL (≈ 20.6 µM); against Trichophyton rubrum, 4 µg/mL (≈ 20.6 µM); against Cryptococcus neoformans, 8 µg/mL (≈ 41.2 µM).
In the case of `Fc1ccc2c(c1)COB2c1ccsc1`, the MIC in the assay with Trichophyton benhamiae was found to be 4 µg/mL (≈ 18.3 µM); against Candida albicans, 1 µg/mL (≈ 4.59 µM); against Aspergillus fumigatus, 1 µg/mL (≈ 4.59 µM); against Trichophyton rubrum, 1 µg/mL (≈ 4.59 µM); in the assay on Cryptococcus neoformans it was 1 µg/mL (≈ 4.59 µM).
On to `OB1OCc2c(F)cccc21`, for which the minimum inhibitory concentration (MIC) with Trichophyton benhamiae is 16 µg/mL (≈ 105 µM); in the assay with Candida albicans it was 64 µg/mL (≈ 421 µM); in the assay with Aspergillus fumigatus, 32 µg/mL (≈ 211 µM); against Trichophyton rubrum it was 16 µg/mL (≈ 105 µM); in the assay with Cryptococcus neoformans, 32 µg/mL (≈ 211 µM).
Turning to `Fc1ccc2c(c1)COB2/C=C/c1ccccc1`, the MIC was 2 µg/mL (≈ 8.4 µM) against Trichophyton benhamiae; 0.5 µg/mL (≈ 2.1 µM) against Candida albicans; 1 µg/mL (≈ 4.2 µM) with Aspergillus fumigatus; no more than 1 µg/mL in the assay with Trichophyton rubrum; 0.5 µg/mL (≈ 2.1 µM) against Cryptococcus neoformans.
On to `Cc1ccc(B2OCc3cc(F)ccc32)cc1`, for which the MIC in the assay on Trichophyton benhamiae came to 2 µg/mL (≈ 8.85 µM); in the assay with Candida albicans it was 0.5 µg/mL (≈ 2.21 µM); against Aspergillus fumigatus it was 0.5 µg/mL (≈ 2.21 µM); against Trichophyton rubrum, 2 µg/mL (≈ 8.85 µM); against Cryptococcus neoformans, 0.5 µg/mL (≈ 2.21 µM).
Regarding `OB1OCc2ccc(F)cc21`, the minimum inhibitory concentration (MIC) with Trichophyton benhamiae is 32 µg/mL (≈ 211 µM); in the assay with Candida albicans it was 16 µg/mL (≈ 105 µM); against Aspergillus fumigatus, 8 µg/mL (≈ 52.7 µM); with Trichophyton rubrum it was 16 µg/mL (≈ 105 µM); against Cryptococcus neoformans it was 32 µg/mL (≈ 211 µM).
As to `OB1OCc2ccccc21` [BENZOXABOROLE], the minimum inhibitory concentration (MIC) against Trichophyton benhamiae worked out at 4 µg/mL (≈ 29.9 µM); with Candida albicans, 2 µg/mL (≈ 14.9 µM); against Aspergillus fumigatus, 2 µg/mL (≈ 14.9 µM); in the assay with Trichophyton rubrum, 8 µg/mL (≈ 59.7 µM); against Cryptococcus neoformans, 1 µg/mL (≈ 7.47 µM).
Regarding `Cc1ccc2c(c1)COB2O`, the minimal inhibitory concentration (MIC) against Trichophyton benhamiae was found to be 4 µg/mL (≈ 27 µM); in the assay on Candida albicans, 2 µg/mL (≈ 13.5 µM); against Aspergillus fumigatus it was 2 µg/mL (≈ 13.5 µM); with Trichophyton rubrum, 8 µg/mL (≈ 54.1 µM); in the assay on Cryptococcus neoformans it was 8 µg/mL (≈ 54.1 µM).
Turning to `Fc1cccc(B2OCc3cc(F)ccc32)c1`, the MIC came out at 2 µg/mL (≈ 8.69 µM) in the assay on Trichophyton benhamiae; 0.5 µg/mL (≈ 2.17 µM) in the assay with Candida albicans; 1 µg/mL (≈ 4.35 µM) against Aspergillus fumigatus; 1 µg/mL (≈ 4.35 µM) in the assay on Trichophyton rubrum; 1 µg/mL (≈ 4.35 µM) in the assay on Cryptococcus neoformans.
For `Cc1cc(C2CCCCC2)n(O)c(=O)c1` [CICLOPIROX], the MIC in the assay on Trichophyton benhamiae was determined as 0.5 µg/mL (≈ 2.41 µM); against Candida albicans, 0.5 µg/mL (≈ 2.41 µM); against Aspergillus fumigatus, 1 µg/mL (≈ 4.82 µM); against Trichophyton rubrum, 0.5 µg/mL (≈ 2.41 µM); in the assay on Cryptococcus neoformans, 0.5 µg/mL (≈ 2.41 µM).
With `OB1OCc2cc(C(F)(F)F)ccc21`, the MIC against Trichophyton benhamiae amounted to 8 µg/mL (≈ 39.6 µM); against Candida albicans, 16 µg/mL (≈ 79.2 µM); against Aspergillus fumigatus, 8 µg/mL (≈ 39.6 µM); in the assay with Trichophyton rubrum it was 8 µg/mL (≈ 39.6 µM); against Cryptococcus neoformans it was 16 µg/mL (≈ 79.2 µM).
On to `OB1OCCc2cc(F)ccc21`, for which the minimal inhibitory concentration (MIC) in the assay with Trichophyton benhamiae is 32 µg/mL (≈ 193 µM); in the assay on Candida albicans, 64 µg/mL (≈ 386 µM); in the assay with Aspergillus fumigatus it was 32 µg/mL (≈ 193 µM); against Trichophyton rubrum it was 32 µg/mL (≈ 193 µM); against Cryptococcus neoformans, greater than 64 µg/mL.
As to `Fc1ccc(B2OCc3cc(F)ccc32)cc1`, the minimal inhibitory concentration (MIC) against Trichophyton benhamiae was 4 µg/mL (≈ 17.4 µM); with Candida albicans it was 1 µg/mL (≈ 4.35 µM); against Aspergillus fumigatus it was 2 µg/mL (≈ 8.69 µM); with Trichophyton rubrum, 4 µg/mL (≈ 17.4 µM); in the assay with Cryptococcus neoformans it was 1 µg/mL (≈ 4.35 µM).
Turning to `Fc1ccc2c(c1)COB2c1cccc(Cl)c1`, the minimal inhibitory concentration (MIC) against Trichophyton benhamiae came to 8 µg/mL (≈ 32.5 µM); in the assay with Candida albicans, 0.25 µg/mL (≈ 1.01 µM); in the assay with Aspergillus fumigatus, 2 µg/mL (≈ 8.11 µM); in the assay on Trichophyton rubrum it was 4 µg/mL (≈ 16.2 µM); with Cryptococcus neoformans it was 0.5 µg/mL (≈ 2.03 µM).
For `C=CB1OCc2cc(F)ccc21`, the minimum inhibitory concentration (MIC) with Trichophyton benhamiae worked out at 2 µg/mL (≈ 12.3 µM); in the assay with Candida albicans, 1 µg/mL (≈ 6.17 µM); in the assay on Aspergillus fumigatus it was 2 µg/mL (≈ 12.3 µM); in the assay with Trichophyton rubrum, 4 µg/mL (≈ 24.7 µM); in the assay on Cryptococcus neoformans it was 4 µg/mL (≈ 24.7 µM).
With `Fc1ccc2c(c1)CCOB2c1ccccc1`, the MIC in the assay with Trichophyton benhamiae, with Candida albicans, in the assay with Aspergillus fumigatus, in the assay with Trichophyton rubrum and against Cryptococcus neoformans was 8 µg/mL (≈ 35.4 µM) throughout.
Regarding `Cc1cccc(B2OCc3cc(F)ccc32)c1`, the MIC in the assay on Trichophyton benhamiae was found to be 4 µg/mL (≈ 17.7 µM); against Candida albicans it was 1 µg/mL (≈ 4.42 µM); against Aspergillus fumigatus, 0.5 µg/mL (≈ 2.21 µM); in the assay with Trichophyton rubrum, 2 µg/mL (≈ 8.85 µM); in the assay on Cryptococcus neoformans, 0.5 µg/mL (≈ 2.21 µM).

The values above are taken from ChEMBL document CHEMBL1138046, “Discovery of a new boron-containing antifungal agent, 5-fluoro-1,3-dihydro-1-hydroxy-2,1- benzoxaborole (AN2690), for the potential treatment of onychomycosis” (2006).
